From ChEMBL document CHEMBL1127303, “Triazolinone biphenylsulfonamides as angiotensin II receptor antagonists with high affinity for both the AT1 and AT2 subtypes” (J Med Chem, 1994)

Tests used:
Rattus norvegicus [1] = assay: Tested for the ability to inhibit the pressor response to angiotensin II (AII) by intravenous administration at the dose of 1.0 mg/kg with duration of >6, <24 hr in two rats; format: functional
Rattus norvegicus [2] = assay: Tested for the ability to inhibit the pressor response to angiotensin II (AII) by oral administration at the dose of 1.0 mg/kg with duration of>6, <24 hr in two rats; format: functional

CCCCc1nn(-c2ccccc2C(F)(F)F)c(=O)n1Cc1ccc(-c2ccccc2S(=O)(=O)NC(=O)OC(C)(C)C)cc1
inhibition in vivo at 1 mg/kg (Rattus norvegicus [1]): 83% | inhibition in vivo at 1 mg/kg (Rattus norvegicus [2]): 87%
